Data as given in patent US12528816B2, “Substituted imidazo [1,2-b] pyridazines and [1, 2, 4] triazolo [ 4,3-b] pyridazines as camkii inhibitors” (Cardurion Pharmaceuticals, INC., priority 2020, dated 2026).
pIC50: −log10 of the molar value.

Each compound was assayed against T1, human CaMKIIδ (Homo sapiens, UniProt Q13557) (assay: Evaluation of in vitro CaMKII inhibitory activity (binding assay, TR-FRET)). Details: human CaMKIIδ, TR-FRET binding assay; class symbols A/B/C; read-out: Act (CaMKII inhibitory activity, binding assay).
T1 construct: Full-length, glutathione-S-transferase(GST)-tagged, human CaMKIIδ was purchased from Carna Biosciences; purchased Carna Biosciences (CaMKIIδ); Wako Pure Chemical Industries (calmodulin) 02-111
Experimental: Evaluation of In Vitro CaMKII Inhibitory Activity (Binding Assay)
In vitro CaMKIIδ inhibitory activity was evaluated by a binding assay.
Full-length bovine calmodulin was purchased from Wako Pure Chemical Industries (Osaka, Japan). Terbium-labeled anti-GST anti body (Tb-anti-GST Ab) was purchased from Life Technologies (Carlsbad, CA, USA). Fluorescent probe ligand, 5,5-difluoro-7,9-dimethyl-3-(3-oxo-3-((3-((4-(3-(piperazin-1-yl)phenyl)pyrimidin-2-yl)amino)phenyl)amino) propyl)-5H-dipyrrolo[1,2-c:2′,1′-f]
Time-resolved fluorescence resonance energy transfer (TR-FRET) assay
The fluorescent probe ligand, 5,5-difluoro-7,9-dimethyl-3-(3-oxo-3-((3-((4-(3-(piperazin-1-yl)phenyl)pyrimidin-2-yl)amino)phenyl)amino) propyl)-5H-dipyrrolo[1,2-c:2′,1′-f] […] After shaded incubation of the protein-probe mixture on ice for 30 min, the premix was dispensed in the assay plate including test inhibitors with 4 fold dilution series of eight concentrations. After 1 hr incubation at room temperature, TR-FRET signals were measured in duplicate using an EnVision microplate reader (Perkin Elmer, Waltham, MA, USA).
The half maximal inhibitory concentration (IC50) of test compounds was calculated by fitting the data with the logistic equation using XLfit (IDBS, Guildford, UK).

Row | Structure (SMILES) | pIC50
1 | CCN(CC)CCNC(=O)c1cccc(-c2cnn3ccc(-c4ccc(C#N)c(O[C@@H](C)Cn5cnnn5)c4)nc23)c1 [Example 1, 3-[5-(4-cyano-3-{[(2S)-1-(1H-tetrazol-1-yl)propan-2-yl]oxy}phenyl)pyrazolo[1,5-a]pyrimidin-3-yl]-N-[2-(diethylamino)ethyl]benzamide] | 7.00 to 8.00
2 | Cc1nn2ccc(-c3ccc(F)c(O[C@@H](C)Cn4cnnn4)c3)nc2c1-c1cccs1 [Example 57, 1-[(2S)-2-{2-fluoro-5-[2-methyl-3-(thiophen-2-yl)pyrazolo[1,5-a]pyrimidin-5-yl]phenoxy}propyl]-1H-tetrazole] | 7.00 to 8.00
3 | C[C@@H](Cn1cncn1)Oc1cccc(-c2ccn3ncc(-c4cccs4)c3n2)c1 [Example 61, 1-[(2S)-2-{3-[3-(thiophen-2-yl)pyrazolo[1,5-a]pyrimidin-5-yl]phenoxy}propyl]-1H-1,2,4-triazole] | > 8.00
4 | C[C@@H](Cn1cnnn1)Oc1cc(-c2ccc3ncc(-c4ccccc4C#N)n3n2)ccc1F [Example 121, 2-[6-(4-fluoro-3-{[(2S)-1-(1H-tetrazol-1-yl)propan-2-yl]oxy}phenyl)imidazo[1,2-b]pyridazin-3-yl]benzonitrile] | > 8.00
5 | C[C@@H](Cn1cnnn1)Oc1cc(-c2ccc3ncn(-c4ncccc4C#N)c3n2)ccc1F [Example 150, 2-[5-(4-fluoro-3-{[(2S)-1-(1H-tetrazol-1-yl)propan-2-yl]oxy}phenyl)-3H-imidazo[4,5-b]pyridin-3-yl]pyridine-3-carbonitrile] | > 8.00
6 | C[C@@H](Cn1cnnn1)Oc1cc(-c2ccc3ncn(-c4ncn(C)c4C#N)c3n2)ccc1F [Example 173, 4-[5-(4-fluoro-3-{[(2S)-1-(1H-tetrazol-1-yl)propan-2-yl]oxy}phenyl)-3H-imidazo[4,5-b]pyridin-3-yl]-1-methyl-1H-imidazole-5-carbonitrile] | > 8.00

Same assay, conditions: in vitro CaMKII inhibitory activity (binding assay), human CaMKIIδ; read-out: Act

Row | Structure (SMILES) | pIC50
7 | C[C@@H](Cn1cnnn1)Oc1cccc(-c2ccc3ncc(-c4ccccc4C#N)n3n2)c1 [Example 239, 2-[6-(3-{[(2S)-1-(1H-tetrazol-1-yl)propan-2-yl]oxy}phenyl)imidazo[1,2-b]pyridazin-3-yl]benzonitrile] | > 8.00
8 | C[C@@H](Cn1cnnn1)Oc1cncc(-c2ccc3ncc(-c4ccccc4C#N)n3n2)c1 [Example 244, 2-[6-(5-{[(2S)-1-(1H-tetrazol-1-yl)propan-2-yl]oxy}pyridin-3-yl)imidazo[1,2-b]pyridazin-3-yl]benzonitrile] | > 8.00
9 | C[C@@H](Cn1cnnn1)Oc1cc(-c2ccc3ncc(-c4ncccc4C#N)n3n2)ccc1F [Example 247, 2-[6-(4-fluoro-3-{[(2S)-1-(1H-tetrazol-1-yl)propan-2-yl]oxy}phenyl)imidazo[1,2-b]pyridazin-3-yl]pyridine-3-carbonitrile] | > 8.00
10 | C[C@@H](Cn1cnnn1)Oc1cccc(-c2ccc3ncc(-c4cnccc4C#N)n3n2)c1 [Example 251, 3-[6-(3-{[(2S)-1-(1H-tetrazol-1-yl)propan-2-yl]oxy}phenyl)imidazo[1,2-b]pyridazin-3-yl]pyridine-4-carbonitrile] | > 8.00
11 | C[C@@H](Cn1cnnn1)Oc1cccc(-c2ccc3ncc(-c4cccn(C)c4=O)n3n2)c1 [Example 253, 1-methyl-3-[6-(3-{[(2S)-1-(1H-tetrazol-1-yl)propan-2-yl]oxy}phenyl)imidazo[1,2-b]pyridazin-3-yl]-1,2-dihydropyridin-2-one] | > 8.00
12 | C[C@@H](Cn1cnnn1)Oc1cccc(-c2ccc3ncc(-c4cncnc4C#N)n3n2)c1 [Example 267, 5-[6-(3-{[(2S)-1-(1H-tetrazol-1-yl)propan-2-yl]oxy}phenyl)imidazo[1,2-b]pyridazin-3-yl]pyrimidine-4-carbonitrile] | > 8.00
13 | C[C@@H](Cn1cnnn1)Oc1cc(-c2ccc3ncc(-c4c[n+]([O-])ccc4C#N)n3n2)ccc1F [Example 269, (S)-3-(6-(3-((1-(1H-tetrazol-1-yl)propan-2-yl)oxy)-4-fluorophenyl)imidazo[1,2-b]pyridazin-3-yl)-4-cyanopyridine N-oxide] | > 8.00
14 | C[C@@H](Cn1cnnn1)Oc1cccc(-c2ccc3ncc(-c4ncccc4C#N)n3n2)c1 [Example 271, 2-[6-(3-{[(2S)-1-(1H-tetrazol-1-yl)propan-2-yl]oxy}phenyl)imidazo[1,2-b]pyridazin-3-yl]pyridine-3-carbonitrile] | > 8.00
15 | C[C@@H](Cn1cnnn1)Oc1cc(-c2ccc3ncc(-c4cnccc4C#N)n3n2)ccc1F [Example 275, 3-[6-(4-fluoro-3-{[(2S)-1-(1H-tetrazol-1-yl)propan-2-yl]oxy}phenyl)imidazo[1,2-b]pyridazin-3-yl]pyridine-4-carbonitrile] | > 8.00
16 | C[C@@H](Cn1cnnn1)Oc1cccc(-c2ccc3ncn(-c4ncccc4C#N)c3n2)c1 [Example 284, 2-[5-(3-{[(2S)-1-(1H-tetrazol-1-yl)propan-2-yl]oxy}phenyl)-3H-imidazo[4,5-b]pyridin-3-yl]pyridine-3-carbonitrile] | > 8.00
17 | COc1cc(-c2cnc3ccc(-c4cccc(O[C@@H](C)Cn5cnnn5)c4)nn23)c(C#N)cn1 [Example 289, 6-methoxy-4-[6-(3-{[(2S)-1-(1H-tetrazol-1-yl)propan-2-yl]oxy}phenyl)imidazo[1,2-b]pyridazin-3-yl]pyridine-3-carbonitrile] | > 8.00
18 | C[C@@H](Cn1cnnn1)Oc1cccc(-c2ccc3ncn(-c4cc(F)ccc4C#N)c3n2)c1 [Example 291, 4-fluoro-2-[5-(3-{[(2S)-1-(1H-tetrazol-1-yl)propan-2-yl]oxy}phenyl)-3H-imidazo[4,5-b]pyridin-3-yl]benzonitrile] | > 8.00
19 | C[C@@H](Cn1cnnn1)Oc1cnnc(-c2ccc3ncc(-c4cc(F)ccc4C#N)n3n2)c1 [Example 298, 4-fluoro-2-[6-(5-{[(2S)-1-(1H-tetrazol-1-yl)propan-2-yl]oxy}pyridazin-3-yl)imidazo[1,2-b]pyridazin-3-yl]benzonitrile] | 7.00 to 8.00
20 | COc1ccnc(-c2cnc3ccc(-c4cccc(O[C@@H](C)Cn5cnnn5)c4)nn23)c1C#N [Example 300, 4-methoxy-2-[6-(3-{[(2S)-1-(1H-tetrazol-1-yl)propan-2-yl]oxy}phenyl)imidazo[1,2-b]pyridazin-3-yl]pyridine-3-carbonitrile] | > 8.00
21 | C[C@@H](Cn1cnnn1)Oc1cc(-c2ccc3ncn(-c4cc(F)ccc4C#N)c3n2)ncn1 [Example 305, 4-fluoro-2-[5-(6-{[(2S)-1-(1H-tetrazol-1-yl)propan-2-yl]oxy}pyrimidin-4-yl)-3H-imidazo[4,5-b]pyridin-3-yl]benzonitrile] | 7.00 to 8.00
22 | C[C@@H](Cn1cnnn1)Oc1ccnc(-c2ccc3ncc(-c4cc(F)ccc4C#N)n3n2)c1 [Example 311, 4-fluoro-2-[6-(4-{[(2S)-1-(1H-tetrazol-1-yl)propan-2-yl]oxy}pyridin-2-yl)imidazo[1,2-b]pyridazin-3-yl]benzonitrile] | > 8.00
23 | COc1ccc(C#N)c(-c2cnc3ccc(-c4cccc(O[C@@H](C)Cn5cnnn5)c4)nn23)n1 [Example 313, 6-methoxy-2-[6-(3-{[(2S)-1-(1H-tetrazol-1-yl)propan-2-yl]oxy}phenyl)imidazo[1,2-b]pyridazin-3-yl]pyridine-3-carbonitrile] | > 8.00
24 | COc1ncnc(-c2cnc3ccc(-c4cccc(O[C@@H](C)Cn5cnnn5)c4)nn23)c1C#N [Example 320, 4-methoxy-6-[6-(3-{[(2S)-1-(1H-tetrazol-1-yl)propan-2-yl]oxy}phenyl)imidazo[1,2-b]pyridazin-3-yl]pyrimidine-5-carbonitrile] | > 8.00
25 | COc1ccnc(-c2cnc3ccc(-c4ccc(F)c(O[C@@H](C)Cn5cnnn5)c4)nn23)c1C#N [Example 321, 2-[6-(4-fluoro-3-{[(2S)-1-(1H-tetrazol-1-yl)propan-2-yl]oxy}phenyl)imidazo[1,2-b]pyridazin-3-yl]-4-methoxypyridine-3-carbonitrile] | > 8.00
26 | C[C@@H](Cn1cnnn1)Oc1cccc(-c2ccc3ncc(-c4cc(F)ccc4C#N)n3n2)n1 [Example 325, 4-fluoro-2-[6-(6-{[(2S)-1-(1H-tetrazol-1-yl)propan-2-yl]oxy}pyridin-2-yl)imidazo[1,2-b]pyridazin-3-yl]benzonitrile] | > 8.00
27 | C[C@@H](Cn1cnnn1)Oc1cncc(-c2ccc3ncc(-c4cc(F)ccc4C#N)n3n2)n1 [Example 326, 4-fluoro-2-[6-(6-{[(2S)-1-(1H-tetrazol-1-yl)propan-2-yl]oxy}pyrazin-2-yl)imidazo[1,2-b]pyridazin-3-yl]benzonitrile] | > 8.00
28 | C[C@@H](Cn1cnnn1)Oc1nccc(-c2ccc3ncn(-c4cc(F)ccc4C#N)c3n2)n1 [Example 342, 4-fluoro-2-[5-(2-{[(2S)-1-(1H-tetrazol-1-yl)propan-2-yl]oxy}pyrimidin-4-yl)-3H-imidazo[4,5-b]pyridin-3-yl]benzonitrile] | 7.00 to 8.00
29 | C[C@@H](Cn1cnnn1)Oc1cccc(-c2ccc3ncn(-c4cc(F)ccc4C#N)c3n2)n1 [Example 345, 4-fluoro-2-[5-(6-{[(2S)-1-(1H-tetrazol-1-yl)propan-2-yl]oxy}pyridin-2-yl)-3H-imidazo[4,5-b]pyridin-3-yl]benzonitrile] | > 8.00
